Source: ChEMBL document CHEMBL1201862, “PubChem BioAssay data set” (2004)
Values belong to the compound of their own block, whether it stands above or below them. Active and inactive are the calls of the source.

How the values were obtained:
[1] = molecular target: T1, Corticotropin-releasing factor receptor 2/Corticotropin-releasing factor-binding protein (Homo sapiens, UniProt P24387+Q13324); assay: Dose Response confirmation of uHTS hits for small molecule antagonists of the CRF-binding protein and CRF-R2 receptor complex.; format: functional; conditions: read-out: IC50_Mean
T1 sequence (Q13324 whole entry): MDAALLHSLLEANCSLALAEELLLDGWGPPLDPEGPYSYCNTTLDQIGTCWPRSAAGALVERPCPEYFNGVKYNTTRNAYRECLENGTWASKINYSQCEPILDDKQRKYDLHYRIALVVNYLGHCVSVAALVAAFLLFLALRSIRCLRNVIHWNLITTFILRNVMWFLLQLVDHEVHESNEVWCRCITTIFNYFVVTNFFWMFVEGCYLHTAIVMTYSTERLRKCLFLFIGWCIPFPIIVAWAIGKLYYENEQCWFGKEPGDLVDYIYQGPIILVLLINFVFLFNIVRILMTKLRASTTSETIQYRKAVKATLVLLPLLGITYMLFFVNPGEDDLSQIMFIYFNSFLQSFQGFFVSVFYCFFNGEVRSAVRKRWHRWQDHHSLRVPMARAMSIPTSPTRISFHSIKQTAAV
T1 sequence (P24387 whole entry): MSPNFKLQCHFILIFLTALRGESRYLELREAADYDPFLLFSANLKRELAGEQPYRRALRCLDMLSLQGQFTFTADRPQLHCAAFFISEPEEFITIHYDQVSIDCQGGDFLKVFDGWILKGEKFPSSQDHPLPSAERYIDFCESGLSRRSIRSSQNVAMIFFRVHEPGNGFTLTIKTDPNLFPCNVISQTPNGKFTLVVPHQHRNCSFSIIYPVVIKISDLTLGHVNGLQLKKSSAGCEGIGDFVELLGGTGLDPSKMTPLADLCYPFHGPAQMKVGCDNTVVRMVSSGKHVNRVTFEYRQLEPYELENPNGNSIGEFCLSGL

[2] = molecular target: T2, Low molecular weight phosphotyrosine protein phosphatase (Homo sapiens, UniProt P24666); format: functional; conditions: read-out: IC50_Mean
T2 sequence (P24666 whole entry): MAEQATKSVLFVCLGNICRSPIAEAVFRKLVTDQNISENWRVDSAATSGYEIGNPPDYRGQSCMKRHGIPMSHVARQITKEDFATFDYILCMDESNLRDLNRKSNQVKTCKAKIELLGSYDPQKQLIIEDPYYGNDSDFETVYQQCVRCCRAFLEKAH

[3] = molecular target: T3, Heat shock factor protein 1 (Mus musculus, UniProt P38532); assay: decrease of HSF1-responsive luciferase luminescence – cell-based, NIH3T3, dose retest, confirmation (AID 2382); format: functional;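 note: NIH3T3 fibroblasts with HSF1-driven luciferase reporter stressed by proteasome inhibitor MG132; luminescence from HSF1-driven luciferase expression after 8 hours of MG132 stress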
T3 sequence (P38532 whole entry): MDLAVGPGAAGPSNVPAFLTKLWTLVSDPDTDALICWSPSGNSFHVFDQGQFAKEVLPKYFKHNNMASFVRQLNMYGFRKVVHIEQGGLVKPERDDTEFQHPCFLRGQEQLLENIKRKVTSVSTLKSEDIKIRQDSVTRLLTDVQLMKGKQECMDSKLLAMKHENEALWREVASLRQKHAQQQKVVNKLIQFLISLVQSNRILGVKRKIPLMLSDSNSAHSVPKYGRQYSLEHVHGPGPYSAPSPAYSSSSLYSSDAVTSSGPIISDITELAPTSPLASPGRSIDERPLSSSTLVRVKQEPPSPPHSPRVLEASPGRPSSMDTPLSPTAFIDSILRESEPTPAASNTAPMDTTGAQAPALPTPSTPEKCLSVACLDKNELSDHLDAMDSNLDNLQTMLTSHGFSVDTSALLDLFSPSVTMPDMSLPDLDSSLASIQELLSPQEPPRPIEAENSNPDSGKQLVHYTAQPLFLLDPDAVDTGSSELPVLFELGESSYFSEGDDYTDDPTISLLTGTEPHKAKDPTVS

[4] = molecular target: T1, Corticotropin-releasing factor receptor 2/Corticotropin-releasing factor-binding protein; assay: activators of CRF receptor 2 with binding protein – uHTS hits, confirmation (AID 602473); format: functional; conditions: read-out: EC50_Mean
[5] = molecular target: T2, Low molecular weight phosphotyrosine protein phosphatase; format: functional; conditions: read-out: IC50_Mean; remark: listed apart in the source
[6] = molecular target: T4, Probable nicotinate-nucleotide adenylyltransferase (Staphylococcus aureus (strain N315), UniProt P65502); format: functional, Staphylococcus aureus subsp. aureus N315; conditions: read-out: IC50_Mean;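 for IC50 Mean: confirmatory dose-response retesting of NadD inhibitor hits first found in an ultra-high-throughput screen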
[7] = molecular target: T4, Probable nicotinate-nucleotide adenylyltransferase; format: functional, Staphylococcus aureus subsp. aureus N315
[8] = molecular target: T5, Trace amine-associated receptor 1 (Homo sapiens, UniProt Q96RJ0); assay: Counterscreen for agonists of the human trace amine associated receptor 1 (hTAAR1): Fluorescence-based cell-based high throughput dose response assay to identify hTAAR1 agonist that also desensitize TAAR1 receptor response.; format: functional
T5 sequence (Q96RJ0 whole entry): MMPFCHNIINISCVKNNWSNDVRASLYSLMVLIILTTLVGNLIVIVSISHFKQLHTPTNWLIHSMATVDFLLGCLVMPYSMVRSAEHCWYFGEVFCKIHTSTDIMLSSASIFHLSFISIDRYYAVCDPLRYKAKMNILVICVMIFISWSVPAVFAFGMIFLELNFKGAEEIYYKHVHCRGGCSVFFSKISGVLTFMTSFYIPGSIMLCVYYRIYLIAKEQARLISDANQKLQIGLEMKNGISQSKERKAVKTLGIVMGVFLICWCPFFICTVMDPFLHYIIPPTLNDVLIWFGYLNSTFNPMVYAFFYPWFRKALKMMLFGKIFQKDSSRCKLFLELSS

[9] = molecular target: T5, Trace amine-associated receptor 1; assay: Fluorescence-based cell-based high throughput dose response assay to identify agonists of the human trace amine associated receptor 1 (TAAR1).; format: functional
cells [10] = format: functional, cell-based
cells [11] = format: functional, cell-based; remark: listed apart in the source
[12] = molecular target: T6, Hepatocyte nuclear factor 4-alpha (Homo sapiens, UniProt P41235); format: functional, cell-based;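 note: biochemical luminescence-based dose-response counterscreen measuring inhibition of HNF4 dimerization, run alongside a screen for blockers of ABHD5–perilipin-5 interaction; split luciferase complementation of HNF4 fusion proteins in cell lysate measuring dimerization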
T6 sequence (P41235 whole entry): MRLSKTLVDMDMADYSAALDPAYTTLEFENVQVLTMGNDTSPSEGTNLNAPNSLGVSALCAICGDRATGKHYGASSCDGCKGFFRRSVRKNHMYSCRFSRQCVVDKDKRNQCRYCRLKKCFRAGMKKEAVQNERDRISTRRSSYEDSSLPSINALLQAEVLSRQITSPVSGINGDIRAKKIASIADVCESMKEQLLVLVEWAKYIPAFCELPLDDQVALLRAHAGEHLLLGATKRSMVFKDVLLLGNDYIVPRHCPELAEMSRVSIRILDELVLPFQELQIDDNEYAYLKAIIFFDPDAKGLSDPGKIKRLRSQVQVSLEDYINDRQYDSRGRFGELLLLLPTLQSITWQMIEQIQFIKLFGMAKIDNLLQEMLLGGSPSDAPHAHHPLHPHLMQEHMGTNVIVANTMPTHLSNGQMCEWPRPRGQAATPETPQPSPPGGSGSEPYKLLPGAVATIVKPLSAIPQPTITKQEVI

Genome polyprotein = Genome polyprotein (dengue virus type 2, UniProt P29990); assay: flavivirus cap methylation enzyme inhibition – biochemical, confirmation dose response, primary screen (AID 588689); format: functional
[13] = molecular target: T7, Sentrin-specific protease 8 (Homo sapiens, UniProt Q96LD8); format: functional;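 note: luminescence read-out of SENP8 inhibition, dose-response confirmation following an ultra-high-throughput screen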
T7 sequence (Q96LD8 whole entry): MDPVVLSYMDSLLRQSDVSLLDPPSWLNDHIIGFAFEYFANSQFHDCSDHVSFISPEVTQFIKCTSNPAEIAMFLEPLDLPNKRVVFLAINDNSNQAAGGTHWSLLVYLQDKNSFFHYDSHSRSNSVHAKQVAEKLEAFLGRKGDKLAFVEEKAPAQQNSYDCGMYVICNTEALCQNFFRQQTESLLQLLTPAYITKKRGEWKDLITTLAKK

[14] = molecular target: T8, Sentrin-specific protease 7 (Homo sapiens, UniProt Q9BQF6); format: functional;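 note: Luminescence-based dose-response confirmation of ultra-high-throughput screening hits, measuring inhibition of SENP7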
T8 sequence (Q9BQF6 whole entry): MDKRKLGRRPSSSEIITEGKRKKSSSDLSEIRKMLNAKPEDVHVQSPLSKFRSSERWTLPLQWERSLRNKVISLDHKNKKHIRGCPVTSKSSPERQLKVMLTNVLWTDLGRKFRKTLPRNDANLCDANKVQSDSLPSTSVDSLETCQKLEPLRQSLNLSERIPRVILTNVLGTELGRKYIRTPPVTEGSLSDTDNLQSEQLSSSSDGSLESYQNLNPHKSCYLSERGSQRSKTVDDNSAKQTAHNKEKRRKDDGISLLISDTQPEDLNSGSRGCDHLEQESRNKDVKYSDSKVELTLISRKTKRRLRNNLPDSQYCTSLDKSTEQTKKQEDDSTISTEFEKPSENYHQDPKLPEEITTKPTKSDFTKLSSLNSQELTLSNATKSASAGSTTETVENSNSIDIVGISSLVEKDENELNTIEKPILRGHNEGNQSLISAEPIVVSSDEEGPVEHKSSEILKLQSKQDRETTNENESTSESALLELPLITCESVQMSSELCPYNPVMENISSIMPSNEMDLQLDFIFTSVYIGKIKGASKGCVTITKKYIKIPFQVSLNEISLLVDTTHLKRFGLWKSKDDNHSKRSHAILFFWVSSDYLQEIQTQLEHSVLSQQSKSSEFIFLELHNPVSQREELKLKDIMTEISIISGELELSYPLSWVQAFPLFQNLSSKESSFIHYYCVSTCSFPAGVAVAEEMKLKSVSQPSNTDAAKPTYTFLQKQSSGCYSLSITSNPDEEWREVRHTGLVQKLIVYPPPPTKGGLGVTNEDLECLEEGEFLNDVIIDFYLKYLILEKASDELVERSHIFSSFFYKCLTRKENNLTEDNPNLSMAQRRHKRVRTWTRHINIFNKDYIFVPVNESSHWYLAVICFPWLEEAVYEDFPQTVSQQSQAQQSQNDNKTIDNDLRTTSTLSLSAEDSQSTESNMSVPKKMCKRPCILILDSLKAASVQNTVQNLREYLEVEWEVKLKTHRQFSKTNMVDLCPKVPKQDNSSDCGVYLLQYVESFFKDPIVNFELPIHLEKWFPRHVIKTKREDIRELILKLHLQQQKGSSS

[15] = Luminescence Cell-Based Dose Retest to Confirm Inhibitors of Cancer Stem Cells. [Related pubchem assays (depositor defined):AID2717, AID2721]; format: functional; conditions: Homo sapiens
Vero = assay: viability of Vero cells under compound – cytotoxicity control for flavivirus capping enzyme inhibitors (AID 588742); format: functional; conditions: Chlorocebus sabaeus
Caspase-3 = molecular target: T9, Caspase-3 (Homo sapiens, UniProt P42574); format: functional;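 note: Dose-response selectivity test against caspase-3 for candidate inhibitors of sentrin-specific proteases (SENPs)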
T9 sequence (P42574 whole entry): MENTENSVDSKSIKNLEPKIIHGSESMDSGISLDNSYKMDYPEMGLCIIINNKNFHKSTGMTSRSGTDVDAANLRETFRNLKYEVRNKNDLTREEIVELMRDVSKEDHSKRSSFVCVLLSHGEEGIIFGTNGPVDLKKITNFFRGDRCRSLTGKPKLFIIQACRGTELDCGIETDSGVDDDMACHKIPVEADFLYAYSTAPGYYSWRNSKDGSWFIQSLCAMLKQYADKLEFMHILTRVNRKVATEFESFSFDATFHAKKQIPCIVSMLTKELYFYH

[16] = molecular target: T10, Sentrin-specific protease 6 (Homo sapiens, UniProt Q9GZR1); format: functional;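 note: Luminescence-based dose-response confirmatory assay of SENP6 inhibition, following up an ultra-high-throughput screen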
T10 sequence (Q9GZR1 whole entry): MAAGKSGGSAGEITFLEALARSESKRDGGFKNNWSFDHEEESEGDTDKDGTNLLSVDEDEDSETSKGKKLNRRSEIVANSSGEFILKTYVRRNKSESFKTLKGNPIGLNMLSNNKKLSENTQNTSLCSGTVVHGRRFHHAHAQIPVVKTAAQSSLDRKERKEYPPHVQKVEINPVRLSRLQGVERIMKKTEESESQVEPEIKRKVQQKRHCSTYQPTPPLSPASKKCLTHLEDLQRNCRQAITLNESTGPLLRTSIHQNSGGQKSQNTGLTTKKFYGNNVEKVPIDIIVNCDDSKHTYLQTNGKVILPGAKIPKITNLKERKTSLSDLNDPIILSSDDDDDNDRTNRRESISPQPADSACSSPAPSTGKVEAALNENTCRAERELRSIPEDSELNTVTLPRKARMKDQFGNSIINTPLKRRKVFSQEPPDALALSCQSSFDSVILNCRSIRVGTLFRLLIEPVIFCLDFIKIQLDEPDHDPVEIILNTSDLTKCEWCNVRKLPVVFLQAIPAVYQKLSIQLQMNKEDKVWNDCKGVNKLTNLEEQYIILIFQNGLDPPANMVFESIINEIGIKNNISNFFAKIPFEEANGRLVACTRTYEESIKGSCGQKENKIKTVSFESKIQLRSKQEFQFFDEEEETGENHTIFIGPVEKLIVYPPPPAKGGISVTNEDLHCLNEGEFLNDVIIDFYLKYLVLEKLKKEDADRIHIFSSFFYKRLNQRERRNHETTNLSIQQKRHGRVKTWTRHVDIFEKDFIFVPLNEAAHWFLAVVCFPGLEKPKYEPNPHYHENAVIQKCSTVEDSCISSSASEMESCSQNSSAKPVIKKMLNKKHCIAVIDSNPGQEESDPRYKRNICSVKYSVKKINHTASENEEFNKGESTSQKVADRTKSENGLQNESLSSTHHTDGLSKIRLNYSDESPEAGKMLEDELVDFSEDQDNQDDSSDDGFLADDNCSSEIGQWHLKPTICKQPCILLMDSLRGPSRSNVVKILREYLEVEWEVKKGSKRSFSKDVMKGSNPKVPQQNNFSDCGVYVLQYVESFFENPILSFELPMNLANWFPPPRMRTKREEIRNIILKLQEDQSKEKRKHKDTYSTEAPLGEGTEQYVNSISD
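Throughout, for AC50: cells exposed to compound for roughly 70 hours or longer before luminescence read.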

Chain of Genome polyprotein (P29990 2492-3391 limits assumed): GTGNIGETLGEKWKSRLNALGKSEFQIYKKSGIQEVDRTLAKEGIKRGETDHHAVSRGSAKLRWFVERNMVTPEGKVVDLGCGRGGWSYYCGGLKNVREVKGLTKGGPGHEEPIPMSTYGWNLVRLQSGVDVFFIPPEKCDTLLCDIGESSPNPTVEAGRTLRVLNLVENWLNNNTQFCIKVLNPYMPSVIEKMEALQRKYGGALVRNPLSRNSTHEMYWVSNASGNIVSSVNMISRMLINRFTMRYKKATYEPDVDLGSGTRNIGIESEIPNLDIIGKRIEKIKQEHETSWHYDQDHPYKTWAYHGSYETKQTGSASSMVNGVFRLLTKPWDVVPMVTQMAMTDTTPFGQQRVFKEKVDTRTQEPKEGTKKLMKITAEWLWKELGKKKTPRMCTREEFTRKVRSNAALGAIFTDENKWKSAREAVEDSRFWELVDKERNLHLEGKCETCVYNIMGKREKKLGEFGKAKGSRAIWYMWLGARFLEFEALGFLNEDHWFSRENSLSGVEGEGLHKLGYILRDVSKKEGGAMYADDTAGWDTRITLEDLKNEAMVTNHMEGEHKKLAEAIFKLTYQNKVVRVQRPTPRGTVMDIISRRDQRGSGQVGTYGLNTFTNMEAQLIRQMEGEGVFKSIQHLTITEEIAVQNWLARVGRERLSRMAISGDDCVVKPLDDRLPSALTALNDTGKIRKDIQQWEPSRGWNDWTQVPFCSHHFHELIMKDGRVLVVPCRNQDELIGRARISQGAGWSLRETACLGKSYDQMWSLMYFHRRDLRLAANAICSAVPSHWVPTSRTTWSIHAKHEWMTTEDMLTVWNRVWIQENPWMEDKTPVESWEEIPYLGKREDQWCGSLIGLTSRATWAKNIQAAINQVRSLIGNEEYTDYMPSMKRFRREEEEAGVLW

Compound: COc1ccc(C(c2nnnn2CCc2ccccc2)N2CCN(C3CCCC3)CC2)cc1 (stereo not given)
IC50 [8]: 8.17 µM (active)
EC50 [9]: 1.62 µM (active)
IC50 (cells [10]): > 29.9 µM (inactive)
EC50 (cells [11]): > 29.9 µM (inactive)

Compound: O=C(NCc1ccccc1)C(c1ccccc1)n1c(=O)c(-c2ccco2)nc2ccccc21 (stereo not given)
IC50 [12]: 2.93 µM (active)

Compound: COc1ccc(NC(=O)c2cc3ccccc3cc2O)cc1
IC50 [12]: 10 µM (inactive)
IC50 (Genome polyprotein): > 100 µM (active)
IC50 [13]: > 100 µM (inactive)
IC50 [14]: 5.51 µM (active)
AC50 [15]: 6.04 µM (active)
CC50 (Vero): 34.6 µM (active)
IC50 (Caspase-3): 20.7 µM (active)
IC50 [16]: 72.6 µM (active)

Second part, the compound after the results:

IC50 [1]: > 47.1 µM (inactive)
IC50 [2]: 67.8 µM (inactive)
EC50 [3]: > 195 µM (not active)
EC50 [4]: > 53 µM (inactive)
IC50 [5]: 27 µM (inactive)
Compound: Cc1[nH]c(=O)c(C#N)cc1-c1csc(-c2ccccc2)n1

IC50 [6]: 7.76 µM (active)
IC50 [7]: 5.05 µM (active)
Compound: Cc1ccc(-c2cc(-c3ccccc3Cl)c(C#N)c(N)n2)o1
